Like-named read-outs stand apart in the source and are kept apart here.
Columns and labels:
Assay in all cases: SelectScreen Kinase Profiling, single point inhibition and IC50 for off-target kinases
Type in all cases: biochemical
off-target kinases [1] = target: off-target kinases (Homo sapiens, UniProt O00418)
off-target kinases [2] = target: off-target kinases (Homo sapiens, UniProt P04049, Y340D/Y341D)
off-target kinases [3] = target: off-target kinases (Homo sapiens, UniProt P08581); conditions: MET (cMet), ZLYTE, ATP Km app
off-target kinases [4] = target: off-target kinases (Homo sapiens, UniProt P23443); conditions: RPS6KB1 (p70S6K), ZLYTE, ATP Km app
off-target kinases [5] = target: off-target kinases (Homo sapiens, UniProt P34947); conditions: GRK5, ZLYTE, ATP Km app
off-target kinases [6] = target: off-target kinases (Homo sapiens, UniProt P36894); conditions: BMPR1A (ALK3), LanthaScreen Binding
off-target kinases [7] = target: T1, off-target kinases (Homo sapiens, UniProt P42679); conditions: MATK (HYL), ZLYTE, ATP Km app
T1 sequence (P42679 1-507): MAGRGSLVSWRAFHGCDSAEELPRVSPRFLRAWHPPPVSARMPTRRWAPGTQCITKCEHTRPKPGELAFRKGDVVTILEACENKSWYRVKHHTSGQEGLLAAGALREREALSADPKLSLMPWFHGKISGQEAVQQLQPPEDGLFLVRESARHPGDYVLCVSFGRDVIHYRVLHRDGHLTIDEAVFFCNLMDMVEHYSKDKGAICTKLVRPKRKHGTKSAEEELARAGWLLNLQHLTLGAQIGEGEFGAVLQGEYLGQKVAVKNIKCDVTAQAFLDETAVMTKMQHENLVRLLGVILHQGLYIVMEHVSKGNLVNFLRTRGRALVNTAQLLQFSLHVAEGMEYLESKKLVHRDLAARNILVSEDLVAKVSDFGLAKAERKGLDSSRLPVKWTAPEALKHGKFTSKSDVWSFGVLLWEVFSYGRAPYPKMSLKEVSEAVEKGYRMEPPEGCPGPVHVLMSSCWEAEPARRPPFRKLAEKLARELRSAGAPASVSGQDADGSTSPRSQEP

off-target kinases [8] = target: off-target kinases (Homo sapiens, UniProt P48730); conditions: CSNK1D (CK1 delta), ZLYTE, ATP Km app
off-target kinases [9] = target: off-target kinases (Homo sapiens, UniProt Q96SB4); conditions: SRPK1, ZLYTE, ATP Km app
off-target kinases [10] = target: off-target kinases (Homo sapiens, UniProt Q9H3Y6); conditions: SRMS (Srm), ZLYTE, ATP Km app
Sequence of off-target kinases (Homo sapiens, UniProt Q9H3Y6) (Q9H3Y6 whole entry): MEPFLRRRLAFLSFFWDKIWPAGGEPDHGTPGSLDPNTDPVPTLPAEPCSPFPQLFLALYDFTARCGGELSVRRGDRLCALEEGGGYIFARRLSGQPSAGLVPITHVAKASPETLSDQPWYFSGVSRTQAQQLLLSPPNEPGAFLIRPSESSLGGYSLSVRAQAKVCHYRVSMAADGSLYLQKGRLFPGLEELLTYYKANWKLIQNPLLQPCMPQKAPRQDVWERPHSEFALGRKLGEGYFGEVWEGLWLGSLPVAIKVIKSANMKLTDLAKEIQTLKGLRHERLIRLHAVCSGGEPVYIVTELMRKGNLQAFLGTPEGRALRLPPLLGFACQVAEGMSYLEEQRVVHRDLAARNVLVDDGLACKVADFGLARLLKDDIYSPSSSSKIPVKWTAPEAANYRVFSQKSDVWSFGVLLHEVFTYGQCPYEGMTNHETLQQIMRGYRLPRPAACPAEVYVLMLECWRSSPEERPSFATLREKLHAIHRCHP

Sequence of off-target kinases (Homo sapiens, UniProt P08581) (P08581 25-1390): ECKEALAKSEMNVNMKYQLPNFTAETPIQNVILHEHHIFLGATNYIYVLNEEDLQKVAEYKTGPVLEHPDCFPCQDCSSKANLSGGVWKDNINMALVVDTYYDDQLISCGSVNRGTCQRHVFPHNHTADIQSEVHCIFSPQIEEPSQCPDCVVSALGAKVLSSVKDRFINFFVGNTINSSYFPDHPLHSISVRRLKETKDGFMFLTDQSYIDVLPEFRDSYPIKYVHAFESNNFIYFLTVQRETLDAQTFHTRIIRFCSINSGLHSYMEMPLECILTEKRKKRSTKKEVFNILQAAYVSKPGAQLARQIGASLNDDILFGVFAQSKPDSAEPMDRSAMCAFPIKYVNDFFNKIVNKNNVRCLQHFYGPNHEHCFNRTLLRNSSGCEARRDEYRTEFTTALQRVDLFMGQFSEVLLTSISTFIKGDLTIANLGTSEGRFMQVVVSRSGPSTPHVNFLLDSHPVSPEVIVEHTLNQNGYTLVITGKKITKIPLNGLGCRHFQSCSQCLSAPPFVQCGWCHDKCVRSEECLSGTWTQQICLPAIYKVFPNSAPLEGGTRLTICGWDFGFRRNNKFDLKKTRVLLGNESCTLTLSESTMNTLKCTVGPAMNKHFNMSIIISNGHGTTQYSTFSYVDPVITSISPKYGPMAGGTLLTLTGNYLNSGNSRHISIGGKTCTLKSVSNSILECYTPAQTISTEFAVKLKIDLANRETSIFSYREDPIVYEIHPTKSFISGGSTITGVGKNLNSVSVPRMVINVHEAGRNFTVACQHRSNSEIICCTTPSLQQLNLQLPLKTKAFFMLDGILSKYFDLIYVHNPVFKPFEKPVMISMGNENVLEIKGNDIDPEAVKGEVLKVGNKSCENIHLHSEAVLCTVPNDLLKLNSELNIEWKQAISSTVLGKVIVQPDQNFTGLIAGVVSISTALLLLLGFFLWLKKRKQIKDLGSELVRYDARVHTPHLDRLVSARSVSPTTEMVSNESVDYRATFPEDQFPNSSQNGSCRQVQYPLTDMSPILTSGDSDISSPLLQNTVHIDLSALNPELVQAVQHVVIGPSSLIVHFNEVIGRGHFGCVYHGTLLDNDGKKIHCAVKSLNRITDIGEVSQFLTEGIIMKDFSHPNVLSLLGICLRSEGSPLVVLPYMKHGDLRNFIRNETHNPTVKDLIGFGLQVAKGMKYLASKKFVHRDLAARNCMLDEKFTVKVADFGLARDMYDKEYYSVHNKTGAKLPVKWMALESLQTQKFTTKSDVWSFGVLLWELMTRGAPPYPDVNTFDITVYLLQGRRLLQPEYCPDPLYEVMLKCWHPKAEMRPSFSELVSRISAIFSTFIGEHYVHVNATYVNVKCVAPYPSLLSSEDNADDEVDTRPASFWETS
Sequence of off-target kinases (Homo sapiens, UniProt P48730) (P48730 whole entry): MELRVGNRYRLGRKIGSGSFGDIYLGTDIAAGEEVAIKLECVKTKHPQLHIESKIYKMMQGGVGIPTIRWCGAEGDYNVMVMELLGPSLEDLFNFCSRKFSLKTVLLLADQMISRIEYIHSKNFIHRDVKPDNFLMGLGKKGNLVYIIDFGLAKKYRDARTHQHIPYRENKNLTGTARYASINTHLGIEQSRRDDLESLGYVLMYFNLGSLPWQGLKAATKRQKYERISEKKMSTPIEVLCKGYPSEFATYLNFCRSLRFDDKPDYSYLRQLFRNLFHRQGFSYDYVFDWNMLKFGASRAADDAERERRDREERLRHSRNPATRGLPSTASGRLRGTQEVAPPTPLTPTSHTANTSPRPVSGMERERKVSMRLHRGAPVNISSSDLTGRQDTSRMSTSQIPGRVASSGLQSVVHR
Sequence of off-target kinases (Homo sapiens, UniProt P23443) (P23443 whole entry): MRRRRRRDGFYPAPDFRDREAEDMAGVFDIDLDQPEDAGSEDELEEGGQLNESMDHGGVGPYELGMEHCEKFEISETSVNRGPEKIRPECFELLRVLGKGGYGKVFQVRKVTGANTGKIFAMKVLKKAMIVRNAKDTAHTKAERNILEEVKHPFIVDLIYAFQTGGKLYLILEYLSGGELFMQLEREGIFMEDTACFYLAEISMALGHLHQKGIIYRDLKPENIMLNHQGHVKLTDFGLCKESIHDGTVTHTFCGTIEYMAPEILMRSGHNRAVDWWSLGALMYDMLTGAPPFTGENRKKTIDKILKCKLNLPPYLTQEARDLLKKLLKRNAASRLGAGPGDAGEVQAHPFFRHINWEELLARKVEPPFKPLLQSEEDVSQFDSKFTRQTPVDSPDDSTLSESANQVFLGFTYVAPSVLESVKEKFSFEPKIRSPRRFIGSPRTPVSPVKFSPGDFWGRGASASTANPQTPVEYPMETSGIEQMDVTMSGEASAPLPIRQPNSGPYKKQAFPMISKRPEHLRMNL
Sequence of off-target kinases (Homo sapiens, UniProt O00418) (O00418 whole entry): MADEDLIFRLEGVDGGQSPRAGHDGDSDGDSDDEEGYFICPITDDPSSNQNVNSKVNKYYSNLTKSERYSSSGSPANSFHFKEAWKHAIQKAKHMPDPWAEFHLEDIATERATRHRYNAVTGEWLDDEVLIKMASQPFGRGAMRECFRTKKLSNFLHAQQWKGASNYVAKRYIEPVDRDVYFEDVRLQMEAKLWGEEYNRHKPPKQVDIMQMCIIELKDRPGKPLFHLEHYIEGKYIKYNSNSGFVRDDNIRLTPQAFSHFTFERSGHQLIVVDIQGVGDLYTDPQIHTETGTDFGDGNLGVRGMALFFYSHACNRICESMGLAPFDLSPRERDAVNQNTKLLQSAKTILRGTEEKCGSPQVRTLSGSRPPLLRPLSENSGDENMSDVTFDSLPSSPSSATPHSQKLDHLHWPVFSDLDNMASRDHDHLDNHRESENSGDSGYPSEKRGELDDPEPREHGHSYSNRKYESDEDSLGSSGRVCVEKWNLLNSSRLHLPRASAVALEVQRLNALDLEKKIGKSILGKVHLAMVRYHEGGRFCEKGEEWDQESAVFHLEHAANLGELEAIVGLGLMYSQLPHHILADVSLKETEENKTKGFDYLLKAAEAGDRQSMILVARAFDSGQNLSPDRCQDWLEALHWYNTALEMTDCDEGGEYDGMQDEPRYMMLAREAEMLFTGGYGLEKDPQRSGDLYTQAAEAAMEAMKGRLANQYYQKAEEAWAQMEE
Sequence of off-target kinases (Homo sapiens, UniProt P04049, Y340D/Y341D) (P04049 whole entry Y340D/Y341D): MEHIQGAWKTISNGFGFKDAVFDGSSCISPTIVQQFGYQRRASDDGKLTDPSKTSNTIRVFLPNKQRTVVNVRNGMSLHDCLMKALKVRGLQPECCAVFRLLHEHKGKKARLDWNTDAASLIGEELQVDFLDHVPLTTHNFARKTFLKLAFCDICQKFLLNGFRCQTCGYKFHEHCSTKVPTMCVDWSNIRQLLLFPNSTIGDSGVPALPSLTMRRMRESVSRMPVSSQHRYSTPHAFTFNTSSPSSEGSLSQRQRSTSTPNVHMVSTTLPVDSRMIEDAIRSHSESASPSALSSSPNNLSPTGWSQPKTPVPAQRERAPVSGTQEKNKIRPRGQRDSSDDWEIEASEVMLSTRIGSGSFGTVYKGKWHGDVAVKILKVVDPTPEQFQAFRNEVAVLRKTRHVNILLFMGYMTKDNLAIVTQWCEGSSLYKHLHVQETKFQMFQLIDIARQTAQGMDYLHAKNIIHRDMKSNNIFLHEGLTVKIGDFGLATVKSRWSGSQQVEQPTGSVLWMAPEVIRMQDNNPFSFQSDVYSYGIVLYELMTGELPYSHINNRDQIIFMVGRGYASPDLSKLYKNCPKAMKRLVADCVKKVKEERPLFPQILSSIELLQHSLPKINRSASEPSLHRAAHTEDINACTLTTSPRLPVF
Sequence of off-target kinases (Homo sapiens, UniProt P36894) (P36894 24-532): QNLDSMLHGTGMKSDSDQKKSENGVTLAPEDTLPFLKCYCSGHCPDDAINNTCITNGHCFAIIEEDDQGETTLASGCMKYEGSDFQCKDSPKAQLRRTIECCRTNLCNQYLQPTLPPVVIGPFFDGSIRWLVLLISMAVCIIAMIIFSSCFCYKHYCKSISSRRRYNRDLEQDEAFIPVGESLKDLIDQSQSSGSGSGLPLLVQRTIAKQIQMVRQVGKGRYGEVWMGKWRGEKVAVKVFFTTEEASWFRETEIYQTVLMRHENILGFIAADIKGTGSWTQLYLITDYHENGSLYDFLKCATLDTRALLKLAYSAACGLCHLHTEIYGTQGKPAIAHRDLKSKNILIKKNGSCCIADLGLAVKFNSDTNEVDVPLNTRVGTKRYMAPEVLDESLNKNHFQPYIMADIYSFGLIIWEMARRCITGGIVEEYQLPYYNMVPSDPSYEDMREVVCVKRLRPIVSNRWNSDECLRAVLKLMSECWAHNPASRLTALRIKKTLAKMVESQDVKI

N#Cc1cc(-c2ncnc(Nc3ccc(N4CCN(C5COC5)CC4)cc3)n2)ccc1OC1CCOCC1 [Compound 1, 5-(4-((4-(4-(oxetan-3-yl)piperazin-1-yl)phenyl)amino)-1,3,5-triazin-2-yl)-2-((tetrahydro-2H-pyran-4-yl)oxy)benzonitrile]
inhibition (off-target kinases [1]; read-out: % Inhibition 1): -1% | inhibition (off-target kinases [1]; read-out: % Inhibition 2): 0% | inhibition (off-target kinases [1]; read-out: % Inhibition Avg): -1% | inhibition (off-target kinases [2]; RAF1 (cRAF) Y340D Y341D (mutant), ZLYTE, ATP 100, read-out: % Inhibition 1): 5% | inhibition (off-target kinases [2]; RAF1 (cRAF) Y340D Y341D (mutant), ZLYTE, ATP 100, read-out: % Inhibition 2): 3% | inhibition (off-target kinases [2]; RAF1 (cRAF) Y340D Y341D (mutant), ZLYTE, ATP 100, read-out: % Inhibition Avg): 4% | inhibition (off-target kinases [2]; RAF1 (cRAF) Y340D Y341D, mutant y, LanthaScreen Binding, read-out: % Inhibition 1): 15% | inhibition (off-target kinases [2]; RAF1 (cRAF) Y340D Y341D, mutant y, LanthaScreen Binding, read-out: % Inhibition 2): 20% | inhibition (off-target kinases [2]; RAF1 (cRAF) Y340D Y341D, mutant y, LanthaScreen Binding, read-out: % Inhibition Avg): 18% | inhibition (off-target kinases [3]; read-out: % Inhibition 1): 30% | inhibition (off-target kinases [3]; read-out: % Inhibition 2): 33% | inhibition (off-target kinases [3]; read-out: % Inhibition Avg): 31% | inhibition (off-target kinases [4]; read-out: % Inhibition 1): 37% | inhibition (off-target kinases [4]; read-out: % Inhibition 2): 36% | inhibition (off-target kinases [4]; read-out: % Inhibition Avg): 37% | inhibition (off-target kinases [5]; read-out: % Inhibition 1): 5% | inhibition (off-target kinases [5]; read-out: % Inhibition 2): -10% | inhibition (off-target kinases [5]; read-out: % Inhibition Avg): -3% | inhibition (off-target kinases [6]; read-out: % Inhibition 1): 51% | inhibition (off-target kinases [6]; read-out: % Inhibition 2): 51% | inhibition (off-target kinases [6]; read-out: % Inhibition Avg): 51% | inhibition (off-target kinases [7]; read-out: % Inhibition 1): 1% | inhibition (off-target kinases [7]; read-out: % Inhibition 2): 2% | inhibition (off-target kinases [7]; read-out: % Inhibition Avg): 2% | inhibition (off-target kinases [8]; read-out: % Inhibition 1): -1% | inhibition (off-target kinases [8]; read-out: % Inhibition 2): -5% | inhibition (off-target kinases [8]; read-out: % Inhibition Avg): -3% | inhibition (off-target kinases [9]; read-out: % Inhibition 1): -1% | inhibition (off-target kinases [9]; read-out: % Inhibition 2): -2% | inhibition (off-target kinases [9]; read-out: % Inhibition Avg): -2% | inhibition (off-target kinases [10]; read-out: % Inhibition 1): 5% | inhibition (off-target kinases [10]; read-out: % Inhibition 2): 3% | inhibition (off-target kinases [10]; read-out: % Inhibition Avg): 4%

— patent US11572590B2, “Methods for evaluating tumor cell spheroids using 3D microfluidic cell culture device” (Dana-Farber Cancer Institute, Inc., priority 2017, dated 2023)
